Source: patent US20130005747A1, “METHOD FOR SELECTING A CANCER THERAPY” (Cyclacel Limited, priority 2010, published 2013)

Tests used:
Experiment in all cases: Fractional growth, 72 h seliciclib
Type in all cases: cell-based, human
[1] = system: A673; conditions: A673 (Muscle), 15 μM seliciclib
Excerpt: (§1) A total of 270 human cancer cell lines from diverse cancer histopathologic types were investigated.

[2] = system: ABC-1; conditions: ABC-1 (Lung: NSCLC), 15 μM seliciclib
Excerpt: as §1

[3] = system: C-33 A; conditions: C-33 A (Cervix), 15 μM seliciclib
Excerpt: as §1

[4] = system: CAL-29; conditions: CAL-29 (Bladder), 15 μM seliciclib
Excerpt: as §1

[5] = system: CHSA8926; conditions: CHSA8926 (Bone), 15 μM seliciclib
Excerpt: as §1

[6] = system: DBTRG-05MG; conditions: DBTRG-05MG (Brain), 15 μM seliciclib
Excerpt: as §1

[7] = system: EJ138; conditions: EJ138 (Bladder), 15 μM seliciclib
Excerpt: as §1

[8] = system: G-401; conditions: G-401 (Kidney), 15 μM seliciclib
Excerpt: as §1

[9] = system: HARA; conditions: HARA (Lung: NSCLC), 15 μM seliciclib
Excerpt: as §1

[10] = system: HLE; conditions: HLE (Liver), 15 μM seliciclib
Excerpt: as §1

[11] = system: HMVII; conditions: HMVII (Skin), 15 μM seliciclib
Excerpt: as §1

[12] = system: HSC-4; conditions: HSC-4 (Head & Neck), 15 μM seliciclib
Excerpt: as §1

[13] = system: HT115; conditions: HT115 (Intestine), 15 μM seliciclib
Excerpt: as §1

[14] = system: JHH-2; conditions: JHH-2 (Liver), 15 μM seliciclib
Excerpt: as §1

[15] = system: JHU-028EP; conditions: JHU-028EP (Head & Neck), 15 μM seliciclib
Excerpt: as §1

[16] = system: LCLC-103H; conditions: LCLC-103H (Lung: NSCLC), 15 μM seliciclib
Excerpt: as §1

[17] = system: LS174T; conditions: LS174T (Intestine), 15 μM seliciclib
Excerpt: as §1

[18] = system: LU65A; conditions: LU65A (Lung: NSCLC), 15 μM seliciclib
Excerpt: as §1

[19] = system: LU99C; conditions: LU99C (Lung: NSCLC), 15 μM seliciclib
Excerpt: as §1

[20] = system: MG-63; conditions: MG-63 (Bone), 15 μM seliciclib
Excerpt: as §1

[21] = system: MIA PaCa-2; conditions: MIA PaCa-2 (Pancreas), 15 μM seliciclib
Excerpt: as §1

[22] = system: NCI-H1435; conditions: NCI-H1435 (Lung: NSCLC), 15 μM seliciclib
Excerpt: as §1

[23] = system: NCI-H1573; conditions: NCI-H1573 (Lung: NSCLC), 15 μM seliciclib
Excerpt: as §1

[24] = system: NCI-H1975; conditions: NCI-H1975 (Lung: NSCLC), 15 μM seliciclib
Excerpt: as §1

[25] = system: NCI-H2122; conditions: NCI-H2122 (Lung: NSCLC), 15 μM seliciclib
Excerpt: as §1

[26] = system: NCI-H2347; conditions: NCI-H2347 (Lung: NSCLC), 15 μM seliciclib
Excerpt: as §1

[27] = system: NCI-H520; conditions: NCI-H520 (Lung: NSCLC), 15 μM seliciclib
Excerpt: as §1

[28] = system: OVCAR-5; conditions: OVCAR-5 (Ovary), 15 μM seliciclib
Excerpt: as §1

[29] = system: PC-14; conditions: PC-14 (Lung: NSCLC), 15 μM seliciclib
Excerpt: as §1

[30] = system: Panc 04.03; conditions: Panc 04.03 (Pancreas), 15 μM seliciclib
Excerpt: as §1

[31] = system: SCC-25; conditions: SCC-25 (Head & Neck), 15 μM seliciclib
Excerpt: as §1

[32] = system: SCCH-196; conditions: SCCH-196 (Miscellaneous), 15 μM seliciclib
Excerpt: as §1

[33] = system: SNG-M; conditions: SNG-M (Uterus), 15 μM seliciclib
Excerpt: as §1

[34] = system: SW 1116; conditions: SW 1116 (Intestine), 15 μM seliciclib
Excerpt: as §1

[35] = system: SW 48; conditions: SW 48 (Intestine), 15 μM seliciclib
Excerpt: as §1

[36] = system: SW 780; conditions: SW 780 (Bladder), 15 μM seliciclib
Excerpt: as §1

CC[C@H](CO)Nc1nc(NCc2ccccc2)c2ncn(C(C)C)c2n1 [seliciclib, roscovitine]
Fractional Growth [1]: 0.4111 | Fractional Growth [2]: 0.6543 | Fractional Growth [3]: 0.5677 | Fractional Growth [4]: 0.5744 | Fractional Growth [5]: 0.674 | Fractional Growth [6]: 0.7139 | Fractional Growth [7]: 0.3103 | Fractional Growth [8]: 0.3542 | Fractional Growth [9]: 0.6182 | Fractional Growth [10]: 0.1553 | Fractional Growth [11]: 0.4646 | Fractional Growth [12]: 0.3894 | Fractional Growth [13]: 0.4837 | Fractional Growth [14]: 0.635 | Fractional Growth [15]: 0.3716 | Fractional Growth [16]: 0.5051 | Fractional Growth [17]: 0.3713 | Fractional Growth [18]: 0.4627 | Fractional Growth [19]: 0.3864 | Fractional Growth [20]: 0.5484 | Fractional Growth [21]: 0.4826 | Fractional Growth [22]: 0.6379 | Fractional Growth [23]: 0.5485 | Fractional Growth [24]: 0.4117 | Fractional Growth [25]: 0.1093 | Fractional Growth [26]: 0.3299 | Fractional Growth [27]: 0.6863 | Fractional Growth [28]: 0.4053 | Fractional Growth [29]: 0.5776 | Fractional Growth [30]: 0.4899 | Fractional Growth [31]: 0.571 | Fractional Growth [32]: 0.6177 | Fractional Growth [33]: 0.3393 | Fractional Growth [34]: 0.7592 | Fractional Growth [35]: 0.1123 | Fractional Growth [36]: 0.3743
